Assay [1] addresses Poly [ADP-ribose] polymerase 1 (Homo sapiens, UniProt P09874). The assay can be described thus: PARP1 Enzymatic Activity Assay. Here is the method: 2) After the coating was completed, the coating buffer was discarded. […] After washing, the blocking buffer was discarded. […] 4) 1000× compound was prepared. 1 μL of compound was transferred to a 96-well plate containing 199 μL of reaction buffer (50 mM Tris-HCl (pH 7.5), 0.005% Tween-20, 0.01% BSA) and mixed well. […] 5) 25/10×PARP1-DNA solution was prepared with reaction buffer. […] 6) 25/10×NAD+ solution was prepared with reaction buffer. […] 8) Primary antibody was 2000-fold diluted with the blocking buffer. 20 μL of primary antibody was added to the reaction plate, which was incubated at room temperature for 1.5 hours. 9) The primary antibody was discarded. […] 10) Secondary antibody was 2000-fold diluted with the blocking buffer. […] 11) The secondary antibody was discarded. […] The chemiluminescence value RLU was read with Envision.

The target of assay [2] is Poly [ADP-ribose] polymerase 2 (Homo sapiens, UniProt Q9UGN5). The assay can be described thus: PARP2 Enzymatic Activity Assay. Here is the method:
2) After the coating was completed, the coating buffer was discarded. […] 6) 2000× compound was prepared. […] 10) The Stre-HRP solution was discarded.

Each structure is given as a SMILES string.

Chain of Poly [ADP-ribose] polymerase 1 (P09874 whole entry): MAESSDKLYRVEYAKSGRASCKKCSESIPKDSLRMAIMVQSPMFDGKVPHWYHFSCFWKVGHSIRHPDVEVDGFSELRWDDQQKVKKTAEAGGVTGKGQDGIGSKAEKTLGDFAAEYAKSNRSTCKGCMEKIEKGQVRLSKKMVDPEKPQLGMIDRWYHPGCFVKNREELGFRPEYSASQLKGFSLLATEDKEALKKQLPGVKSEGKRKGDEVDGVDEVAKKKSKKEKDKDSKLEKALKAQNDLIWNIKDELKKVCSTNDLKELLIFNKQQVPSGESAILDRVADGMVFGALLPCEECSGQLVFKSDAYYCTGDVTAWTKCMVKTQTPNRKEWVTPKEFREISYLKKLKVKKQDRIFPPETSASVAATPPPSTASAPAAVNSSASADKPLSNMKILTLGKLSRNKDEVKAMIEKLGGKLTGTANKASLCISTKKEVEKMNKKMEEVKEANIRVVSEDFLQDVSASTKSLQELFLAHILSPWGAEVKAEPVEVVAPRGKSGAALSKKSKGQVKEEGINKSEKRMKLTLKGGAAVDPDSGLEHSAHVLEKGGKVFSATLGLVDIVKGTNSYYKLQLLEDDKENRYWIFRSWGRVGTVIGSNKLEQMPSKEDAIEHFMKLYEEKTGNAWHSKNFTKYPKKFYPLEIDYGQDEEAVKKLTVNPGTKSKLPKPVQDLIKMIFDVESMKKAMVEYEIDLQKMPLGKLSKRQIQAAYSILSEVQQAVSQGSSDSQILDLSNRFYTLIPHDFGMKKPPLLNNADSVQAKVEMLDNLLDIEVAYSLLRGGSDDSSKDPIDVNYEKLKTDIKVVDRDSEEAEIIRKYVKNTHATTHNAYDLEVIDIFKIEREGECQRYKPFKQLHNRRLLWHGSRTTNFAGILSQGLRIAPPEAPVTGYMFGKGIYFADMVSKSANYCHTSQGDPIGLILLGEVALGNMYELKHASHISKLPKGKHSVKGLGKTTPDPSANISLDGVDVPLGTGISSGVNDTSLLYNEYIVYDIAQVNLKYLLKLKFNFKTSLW
Chain of Poly [ADP-ribose] polymerase 2 (Q9UGN5 whole entry): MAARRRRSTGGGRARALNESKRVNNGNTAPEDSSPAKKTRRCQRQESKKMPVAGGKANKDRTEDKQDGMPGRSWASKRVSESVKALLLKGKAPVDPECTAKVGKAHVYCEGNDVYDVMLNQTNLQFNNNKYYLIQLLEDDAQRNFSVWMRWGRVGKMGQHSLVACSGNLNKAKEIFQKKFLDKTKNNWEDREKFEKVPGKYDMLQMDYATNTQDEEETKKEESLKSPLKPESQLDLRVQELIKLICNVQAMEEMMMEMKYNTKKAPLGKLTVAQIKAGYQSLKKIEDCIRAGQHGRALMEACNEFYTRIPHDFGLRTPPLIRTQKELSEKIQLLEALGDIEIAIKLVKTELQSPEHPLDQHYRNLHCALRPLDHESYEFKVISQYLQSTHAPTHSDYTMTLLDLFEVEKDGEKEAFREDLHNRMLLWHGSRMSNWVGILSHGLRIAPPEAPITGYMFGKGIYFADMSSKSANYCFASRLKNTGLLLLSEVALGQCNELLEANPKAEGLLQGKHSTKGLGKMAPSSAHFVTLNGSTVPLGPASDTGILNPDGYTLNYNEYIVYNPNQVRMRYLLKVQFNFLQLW

`CCc1cc2ncc(CN3CCN(c4ccc(C(=O)NC)nc4)[C@H]4C[C@H]43)cc2[nH]c1=O` [US20250221987, Example 1-1]: the IC50 in assay [1] amounted to 0.9 nM. For the molecule `CCc1cc2ncc(CN3CCN(c4ccc(C(=O)NC)nc4)[C@@H]4C[C@@H]43)cc2[nH]c1=O` [US20250221987, Example 1-2], the IC50 in assay [1] is 0.7 nM.

For `CCc1cc2ncc(CN3CCN(c4ccc(C(=O)NC)nc4)C4CC43)cc2[nH]c1=O` (stereo unspecified) [US20250221987, Example 1], it took 1.1 nM to reach half-maximal inhibition in assay [1] (IC50). Regarding `CCc1cc2ncc(CN3CCN(c4ccc(C(=O)NC)nc4)[C@@H]4CC[C@H]43)cc2[nH]c1=O` [US20250221987, Example 2-3], the figures for the IC50 in assay [2] and in assay [1] were 72 nM and 1.5 nM, respectively.

As for `CCc1cc2ncc(CN3CCN(c4ccc(C(=O)NC)nc4)[C@H]4CC[C@@H]43)cc2[nH]c1=O` [US20250221987, Example 2-4], the IC50 was 40 nM in assay [2] and 1 nM in assay [1].

Consider `CCc1cc2ncc(CN3CCN(c4ccc(C(=O)NC)nc4)C4CCC43)cc2[nH]c1=O` (stereo unspecified) [US20250221987, Example 2], for which the IC50 turned out to be 14 nM in assay [2] and 0.9 nM in assay [1].

Turning to `CNC(=O)c1ccc(N2CCN(Cc3cnc4cc(OC)c(=O)[nH]c4c3)[C@H]3CC[C@H]32)cn1` [US20250221987, Example 33-1], the values for the IC50 in assay [2] and in assay [1] were greater than 300 nM and 6.6 nM, respectively.

(Values after BindingDB's records for patent US20250221987 (Acerand Therapeutics (Hong Kong), 2025).)
